Patent US20240150377A1, “MODULATORS OF CYSTIC FIBROSIS TRANSMEMBRANE CONDUCTANCE REGULATOR” (VERTEX PHARMACEUTICALS INCORPORATED, priority 2020, published 2024)

Biological target: T1, CFTR (Homo sapiens, UniProt P13569, DEL508-508)
T1 construct: endogenous in cells; host or cells: primary human bronchial epithelial cells from CF subjects (F508del/MF-HBE), differentiated at air-liquid interface
Experiment: HBE2 assay: Ussing chamber assay of CFTR-mediated short-circuit currents
Type: cell-based
Details: F508del/MF-HBE cells, with 44 nM potentiator, 18-24 hours, 20% human serum; for Emax: read-out: HBE2 Max activity (%)
Outline: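 F508del/MF-HBE cultured >14 days at air-liquid interface, mounted in Ussing chambers; transepithelial short-circuit current recorded under voltage clamp (Vhold=0 mV) at 37 °C. CFTR-mediated ISC (μA/cm^2) taken as peak forskolin response relative to steady-state current after inhibition; corrector activity assessed this way.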

T1 sequence (P13569 with tags, fused parts or gaps DEL508-508): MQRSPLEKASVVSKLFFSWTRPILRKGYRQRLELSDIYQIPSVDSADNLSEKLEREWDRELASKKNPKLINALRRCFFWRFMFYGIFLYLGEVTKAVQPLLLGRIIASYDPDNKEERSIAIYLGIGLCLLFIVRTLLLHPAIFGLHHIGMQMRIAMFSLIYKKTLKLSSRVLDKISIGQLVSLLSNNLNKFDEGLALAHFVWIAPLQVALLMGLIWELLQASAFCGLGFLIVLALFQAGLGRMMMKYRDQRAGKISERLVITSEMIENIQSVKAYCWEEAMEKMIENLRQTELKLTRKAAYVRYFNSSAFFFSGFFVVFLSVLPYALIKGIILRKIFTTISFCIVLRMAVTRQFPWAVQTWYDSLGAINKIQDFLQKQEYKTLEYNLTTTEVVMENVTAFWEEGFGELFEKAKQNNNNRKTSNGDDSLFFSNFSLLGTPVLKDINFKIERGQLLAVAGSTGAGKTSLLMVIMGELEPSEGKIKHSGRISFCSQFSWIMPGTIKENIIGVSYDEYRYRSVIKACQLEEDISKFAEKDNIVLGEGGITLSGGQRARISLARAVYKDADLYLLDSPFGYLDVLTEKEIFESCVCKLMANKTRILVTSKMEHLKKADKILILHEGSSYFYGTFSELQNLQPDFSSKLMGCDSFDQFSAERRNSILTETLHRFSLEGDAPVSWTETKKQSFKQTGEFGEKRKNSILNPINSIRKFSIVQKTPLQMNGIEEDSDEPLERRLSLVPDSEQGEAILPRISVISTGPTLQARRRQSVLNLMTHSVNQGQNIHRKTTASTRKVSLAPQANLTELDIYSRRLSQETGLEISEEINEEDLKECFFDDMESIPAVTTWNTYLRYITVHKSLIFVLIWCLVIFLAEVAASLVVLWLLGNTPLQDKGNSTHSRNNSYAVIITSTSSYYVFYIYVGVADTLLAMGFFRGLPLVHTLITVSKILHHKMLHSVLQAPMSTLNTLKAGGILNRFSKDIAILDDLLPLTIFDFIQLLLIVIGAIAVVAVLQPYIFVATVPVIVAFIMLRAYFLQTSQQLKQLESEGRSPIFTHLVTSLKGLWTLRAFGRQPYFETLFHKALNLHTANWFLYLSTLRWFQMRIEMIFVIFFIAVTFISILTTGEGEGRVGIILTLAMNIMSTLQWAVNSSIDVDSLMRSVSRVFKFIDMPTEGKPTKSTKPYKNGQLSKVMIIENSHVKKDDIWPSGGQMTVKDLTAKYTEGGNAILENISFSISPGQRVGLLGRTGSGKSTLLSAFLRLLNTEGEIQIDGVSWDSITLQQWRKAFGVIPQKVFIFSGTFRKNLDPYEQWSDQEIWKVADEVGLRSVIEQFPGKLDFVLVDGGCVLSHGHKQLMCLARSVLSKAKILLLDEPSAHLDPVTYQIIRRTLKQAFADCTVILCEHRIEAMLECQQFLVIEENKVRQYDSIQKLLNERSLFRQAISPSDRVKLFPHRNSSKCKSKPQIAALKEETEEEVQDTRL

Compound	HBE2 Activity at 3 μM (%)	EC50 [nM]	Emax [%]
Cc1cccc(C)c1-c1cc2nc(n1)NS(=O)(=O)c1cccc(c1)C(=O)N(Cc1cc(C(C)C)n(C)n1)[C@H](CC(C)(C)C)CO2 [Compound 1413]	++ (++ is 30-60%)	–	–
COC[C@H]1CCCCN1c1cncc(CN2C(=O)c3cccc(c3)S(=O)(=O)Nc3nc(cc(-c4c(C)cccc4C)n3)OC[C@H]2CC(C)(C)C)n1 [Compound 1539]	–	< 1000	> 60
Cc1cccc(C)c1-c1cc2nc(n1)NS(=O)(=O)c1cccc(c1)C(=O)N(Cc1cncc(N3CC[C@@H]4COC[C@@H]43)n1)[C@H](CC(C)(C)C)CO2 [Compound 1541]	–	< 1000	> 60
Cc1cccc(C)c1-c1cc2nc(n1)NS(=O)(=O)c1cccc(c1)C(=O)N(Cc1ncc(N3CCC(F)(F)C3)cn1)[C@H](CC1(C)CC1)CO2 [Compound 1548]	+++ (+++ is >60+)	–	–
COC[C@@H]1CCN1c1cncc(CN2C(=O)c3cccc(c3)S(=O)(=O)Nc3nc(cc(-c4c(C)cccc4C)n3)OC[C@H]2CC(C)(C)C)n1 [Compound 1549]	+++ (+++ is >60+)	< 1000	> 60
COC[C@@H]1CCN1c1cccc(CN2C(=O)c3cccc(c3)S(=O)(=O)Nc3nc(cc(-c4c(C)cccc4C)n3)OC[C@H]2CC(C)(C)C)n1 [Compound 1550]	+++ (+++ is >60+)	–	–
Cc1cccc(C)c1-c1cc2nc(n1)NS(=O)(=O)c1cccc(c1)C(=O)N(Cc1cccc(N3CC[C@H]3C)n1)[C@H](CC(C)(C)C)CO2 [Compound 1551]	+++ (+++ is >60+)	–	–
Cc1cccc(C)c1-c1cc2nc(n1)NS(=O)(=O)c1cccc(c1)C(=O)N(Cc1nccc(N3CC[C@H]3C)n1)[C@H](CC(C)(C)C)CO2 [Compound 1552]	+++ (+++ is >60+)	–	–
COC[C@@H]1CCN1c1ccnc(CN2C(=O)c3cccc(c3)S(=O)(=O)Nc3nc(cc(-c4c(C)cccc4C)n3)OC[C@H]2CC(C)(C)C)n1 [Compound 1553]	+++ (+++ is >60+)	–	–
CC[C@@H](C)Oc1cnc(CN2C(=O)c3cccc(c3)S(=O)(=O)Nc3nc(cc(-c4c(C)cccc4C)n3)OC[C@H]2CC2(C)CC2)nc1 [Compound 1555]	+++ (+++ is >60+)	–	–
CC[C@@H](C)Oc1cnc(CN2C(=O)c3cccc(c3)S(=O)(=O)Nc3nc(cc(-c4c(C)cccc4C)n3)OC[C@H]2CC2CCC2)nc1 [Compound 1556]	+++ (+++ is >60+)	–	–
Cc1cccc(C)c1-c1cc2nc(n1)NS(=O)(=O)c1cccc(c1)C(=O)N(Cc1ncc(N3CCC(C)(C)CC3)cn1)[C@H](CC1(C)CC1)CO2 [Compound 1560]	+++ (+++ is >60+)	–	–
Cc1cccc(C)c1-c1cc2nc(n1)NS(=O)(=O)c1cccc(c1)C(=O)N(Cc1ncc(N3CCC(C)(C)C3)cn1)[C@H](CC1(C)CC1)CO2 [Compound 1561]	+++ (+++ is >60+)	–	–
CCCOc1cnc(CN2C(=O)c3cccc(c3)S(=O)(=O)Nc3nc(cc(-c4c(C)cccc4C)n3)OC[C@H]2CC2(C)CC2)nc1 [Compound 1562]	+++ (+++ is >60+)	–	–
Cc1cccc(C)c1-c1cc2nc(n1)NS(=O)(=O)c1cccc(c1)C(=O)N(Cc1ncc(N3CC(C)(C)C3)cn1)[C@H](CC(C)C)CO2 [Compound 1563]	+++ (+++ is >60+)	–	–
Cc1cccc(C)c1-c1cc2nc(n1)NS(=O)(=O)c1cccc(c1)C(=O)N(Cc1ncc(N3CCC(C)(C)C3)cn1)[C@H](CC(C)(C)F)CO2 [Compound 1564]	+++ (+++ is >60+)	–	–
Cc1cccc(C)c1-c1cc2nc(n1)NS(=O)(=O)c1cccc(c1)C(=O)N(Cc1ncc(OC(C)C)cn1)[C@H](CC1CCC1)[C@@H](C)O2 [Compound 1565]	+++ (+++ is >60+)	–	–
Cc1cccc(C)c1-c1cc2nc(n1)NS(=O)(=O)c1cccc(c1)C(=O)N(Cc1ncc(OC(C)C)cn1)[C@H](CC1CCC1)[C@@H](C)O2 [Compound 1566]	+ (+ is <300))	–	–
Cc1cccc(C)c1-c1cc2nc(n1)NS(=O)(=O)c1cccc(c1)C(=O)N(Cc1ncc(OC(C)C)cn1)[C@H](CC1CCC1)[C@@H](C)O2 [Compound 1567]	+++ (+++ is >60+)	–	–
Cc1cccc(C)c1-c1cc2nc(n1)NS(=O)(=O)c1cccc(c1)C(=O)N(Cc1ncc(OC(C)C)cn1)[C@H](CC1CCC1)[C@@H](C)O2 [Compound 1568]	+++ (+++ is >60+)	–	–
Cc1cccc(C)c1-c1cc2nc(n1)NS(=O)(=O)c1cccc(c1)C(=O)N(Cc1cccc(N3CCC[C@H]3C)n1)[C@H](CC1(C)CC1)CO2 [Compound 1569]	+++ (+++ is >60+)	–	–

Compound	HBE2 Activity at 3 μM (%)	EC50 [nM]	Emax [%]
Cc1cccc(C)c1-c1cc2nc(n1)NS(=N)(=O)c1cccc(c1)C(=O)N(Cc1ncc(OC(C)C)cn1)[C@H](CC(C)(C)C)CO2 (stereo partly drawn) [Compound 1574]	++ (++ is 30-60%)	–	–
Cc1cccc(C)c1-c1cc2nc(n1)NS(=N)(=O)c1cccc(c1)C(=O)N(Cc1ncc(OC(C)C)cn1)[C@H](CC(C)(C)C)CO2 (stereo partly drawn) [Compound 1575]	+++ (+++ is >60+)	–	–
Cc1cccc(C)c1-c1cc2nc(n1)NS(=O)(=O)c1cccc(c1)C(=O)N(Cc1ncc(OC3CCC3)cn1)[C@H](CC1(C)CC1)CO2 [Compound 1576]	+++ (+++ is >60+)	–	–
CCCOc1cnc(CN2C(=O)c3cccc(c3)S(=O)(=O)Nc3nc(cc(-c4c(C)cccc4C)n3)OC[C@H]2CCC(C)C)nc1 [Compound 1577]	+++ (+++ is >60+)	–	–
Cc1cccc(C)c1-c1cc2nc(n1)NS(=O)(=O)c1cccc(c1)C(=O)N(Cc1cccc(N(C)C3CCC3)n1)[C@H](CC(C)(C)C)CO2 [Compound 1578]	+++ (+++ is >60+)	< 1000	> 60
CCN(c1cncc(CN2C(=O)c3cccc(c3)S(=O)(=O)Nc3nc(cc(-c4c(C)cccc4C)n3)OC[C@H]2CC(C)(C)C)n1)C1CCC1 [Compound 1579]	+++ (+++ is >60+)	< 1000	> 60
CCN(CCOC)c1cncc(CN2C(=O)c3cccc(c3)S(=O)(=O)Nc3nc(cc(-c4c(C)cccc4C)n3)OC[C@H]2CC(C)(C)C)n1 [Compound 1580]	+++ (+++ is >60+)	< 1000	> 60
CC(=O)N(C)c1cncc(CN2C(=O)c3cccc(c3)S(=O)(=O)Nc3nc(cc(-c4c(C)cccc4C)n3)OC[C@H]2CC(C)(C)C)n1 [Compound 1581]	+++ (+++ is >60+)	–	–
COC(=O)N(C)c1cncc(CN2C(=O)c3cccc(c3)S(=O)(=O)Nc3nc(cc(-c4c(C)cccc4C)n3)OC[C@H]2CC(C)(C)C)n1 [Compound 1582]	+++ (+++ is >60+)	–	–
CC(=O)N(C)c1cccc(CN2C(=O)c3cccc(c3)S(=O)(=O)Nc3nc(cc(-c4c(C)cccc4C)n3)OC[C@H]2CC(C)(C)C)n1 [Compound 1583]	+++ (+++ is >60+)	–	–
COC(=O)N(C)c1cccc(CN2C(=O)c3cccc(c3)S(=O)(=O)Nc3nc(cc(-c4c(C)cccc4C)n3)OC[C@H]2CC(C)(C)C)n1 [Compound 1584]	+++ (+++ is >60+)	–	–
Cc1cccc(C)c1-c1cc2nc(n1)NS(=O)(=O)c1cccc(c1)C(=O)N(Cc1cccc(N3CCC[C@@]3(C)CO)n1)[C@H](CC(C)(C)C)CO2 [Compound 1586]	+++ (+++ is >60+)	–	–
CCN(c1cccc(CN2C(=O)c3cccc(c3)S(=O)(=O)Nc3nc(cc(-c4c(C)cccc4C)n3)OC[C@H]2CC(C)(C)C)n1)C1CCC1 [Compound 1587]	+++ (+++ is >60+)	< 1000	> 60
Cc1cccc(C)c1-c1cc2nc(n1)NS(=O)(=O)c1cccc(c1)C(=O)N(Cc1cccc([C@@H](C)N3CCCC3)n1)[C@H](CC(C)(C)C)CO2 [Compound 1588]	+++ (+++ is >60+)	–	–
Cc1cccc(C)c1-c1cc2nc(n1)NS(=O)(=O)c1cccc(c1)C(=O)N(Cc1cccc([C@@H](C)N3CCCC3)n1)[C@H](CC(C)(C)C)CO2 [Compound 1589]	++ (++ is 30-60%)	–	–
Cc1cccc(C)c1-c1cc2nc(n1)NS(=O)(=O)c1cccc(c1)C(=O)N(Cc1cccc([C@@H](C)NC(=O)C(C)C)n1)[C@H](CC(C)(C)C)CO2 [Compound 1590]	+++ (+++ is >60+)	–	–
CC(=O)N[C@H](C)c1cccc(CN2C(=O)c3cccc(c3)S(=O)(=O)Nc3nc(cc(-c4c(C)cccc4C)n3)OC[C@H]2CC(C)(C)C)n1 [Compound 1592]	+++ (+++ is >60+)	–	–
Cc1cccc(C)c1-c1cc2nc(n1)NS(=O)(=O)c1cccc(c1)C(=O)N(Cc1ncc(N3CC(C)(C)C3)cn1)[C@H](CC1CCC1)CO2 [Compound 1594]	–	< 1000	> 60
Cc1cccc(C)c1-c1cc2nc(n1)NS(=O)(=O)c1cccc(c1)C(=O)N(Cc1ncc(N3CC(C)(C)C3)cn1)[C@H](CCC1CC1)CO2 [Compound 1595]	+++ (+++ is >60+)	–	–
CCOc1cnc(CN2C(=O)c3cccc(c3)S(=O)(=O)Nc3nc(cc(-c4c(C)cccc4C)n3)OC[C@H]2CCC2CC2)nc1 [Compound 1596]	+++ (+++ is >60+)	–	–
